Article PMC11845477, “Exploring the principles behind antibiotics with limited resistance” (Nature Communications, 2025)

Tested on: P. aeruginosa ATCC BAA-3107 (SEN) and P. aeruginosa LESB58 (MDR)
Assay: Adaptive laboratory evolution (ALE), relative MIC of evolved lines
Format: cell-based, Pseudomonas aeruginosa
Text: Using the same set of bacterial strains, we initiated adaptive laboratory evolution with the aim to maximize the level of antibiotic resistance in the populations achieved during a longer, but fixed time period.
An established protocol for adaptive laboratory evolution[46],[73] was followed to propagate populations with the highest resistance levels. Starting with an antibiotic concentration that caused approximately 50% growth inhibition, ten parallel populations for each antibiotic-ancestor strain combination were grown for 72 hours at 37 °C with continuous shaking (300 RPM). MHB broth medium was used unless stated otherwise. After each incubation, 20 µl of each culture was transferred to four new wells containing fresh medium with increasing antibiotic concentrations (0.5×, 1×, 1.5×, and 2.5× the previous concentration) in a chessboard layout to monitor potential cross-contamination. Growth was monitored by measuring OD600 using a Biotek Synergy 2 microplate reader, and only populations grown in the highest drug concentration with an OD600 > 0.2 were transferred further.
A robotic liquid handling system was used to automatically prepare a 11 to 16-step serial dilution in 384-well microtiter plates (Greiner). A final concentration of 5 × 10^5 bacterial cells per mL were inoculated into each well containing 60 µL MHB medium. Bacterial cultures were incubated at 37 °C with continuous shaking (Infors shaker, 900 rpm with 3 mm throw) for 18 hours (2 replicates from each). Cell growth was monitored by measuring the optical density (OD600 values, using Biotek Synergy microplate reader). MIC was defined as the antibiotic concentration of complete growth inhibition (i.e., OD600 < 0.05). Relative MIC was calculated as follows:1 relativeMIC=MICevolved/MICancestor […]
Supplementary Figure 4. Resistance levels following adaptive laboratory evolution across bacterial strains. The level of resistance was measured as the fold change in relative MIC between evolved and ancestral strains after ~60 days of adaptive laboratory evolution. Data are grouped by bacterial strain (A. baumannii (AB), E. coli (EC), K. pneumoniae (KP), and P. aeruginosa (PA)) and categorized as either multidrug-resistant (MDR) or sensitive (SEN). Each data point represents a laboratory evolved line, and boxplots show the median, first and third quartiles, with whiskers indicating the 5th and 95th percentiles.
Statistical analysis was performed using two-sided Dunn’s post-hoc test with Benjamini-Hochberg correction for multiple comparisons (****/ ***/ **/ * indicates p < 0.0001/ 0.001/ 0.01/ 0.05). For detailed information on antibiotic and bacterial species, see Supplementary Table 1. For mode of action groups, refer to Table 1. Source data are provided as a Source Data file.

[1] = PA-MDR (Pseudomonas aeruginosa LESB 58), evolved line 1
[2] = PA-MDR (Pseudomonas aeruginosa LESB 58), evolved line 6
[3] = PA-MDR, Pseudomonas aeruginosa LESB 58, evolved line 9
[4] = PA-MDR, Pseudomonas aeruginosa LESB 58, evolved line 10
[5] = PA-MDR, Pseudomonas aeruginosa LESB 58, evolved line 2
[6] = PA-MDR, Pseudomonas aeruginosa LESB 58, evolved line 3
[7] = PA-MDR, Pseudomonas aeruginosa LESB 58, evolved line 4
[8] = PA-MDR, Pseudomonas aeruginosa LESB 58, evolved line 5
[9] = PA-MDR, Pseudomonas aeruginosa LESB 58, evolved line 7
[10] = PA-MDR, Pseudomonas aeruginosa LESB 58, evolved line 8
[11] = PA-SEN (Pseudomonas aeruginosa ATCC BAA 3107), evolved line 4 adapted to the named antibiotic
[12] = PA-SEN (Pseudomonas aeruginosa ATCC BAA 3107), evolved line 10 adapted to the named antibiotic
[13] = PA-SEN, Pseudomonas aeruginosa ATCC BAA 3107, evolved line 1
[14] = PA-SEN, Pseudomonas aeruginosa ATCC BAA 3107, evolved line 1 versus ancestor
[15] = PA-SEN, Pseudomonas aeruginosa ATCC BAA 3107, evolved line 2
[16] = PA-SEN, Pseudomonas aeruginosa ATCC BAA 3107, evolved line 2 versus ancestor
[17] = PA-SEN, Pseudomonas aeruginosa ATCC BAA 3107, evolved line 3
[18] = PA-SEN, Pseudomonas aeruginosa ATCC BAA 3107, evolved line 3 versus ancestor
[19] = PA-SEN, Pseudomonas aeruginosa ATCC BAA 3107, evolved line 4
[20] = PA-SEN, Pseudomonas aeruginosa ATCC BAA 3107, evolved line 4 versus ancestor
[21] = PA-SEN, Pseudomonas aeruginosa ATCC BAA 3107, evolved line 5
[22] = PA-SEN, Pseudomonas aeruginosa ATCC BAA 3107, evolved line 5 versus ancestor
[23] = PA-SEN, Pseudomonas aeruginosa ATCC BAA 3107, evolved line 6
[24] = PA-SEN, Pseudomonas aeruginosa ATCC BAA 3107, evolved line 6 versus ancestor
[25] = PA-SEN, Pseudomonas aeruginosa ATCC BAA 3107, evolved line 7
[26] = PA-SEN, Pseudomonas aeruginosa ATCC BAA 3107, evolved line 7 versus ancestor
[27] = PA-SEN, Pseudomonas aeruginosa ATCC BAA 3107, evolved line 8
[28] = PA-SEN, Pseudomonas aeruginosa ATCC BAA 3107, evolved line 8 versus ancestor
[29] = PA-SEN, Pseudomonas aeruginosa ATCC BAA 3107, evolved line 9
[30] = PA-SEN, Pseudomonas aeruginosa ATCC BAA 3107, evolved line 9 versus ancestor
[31] = PA-SEN, Pseudomonas aeruginosa ATCC BAA 3107, evolved line 10
[32] = PA-SEN, Pseudomonas aeruginosa ATCC BAA 3107, evolved line 10 versus ancestor

In the case of `O=c1ccc2ncc(=O)n3c2n1C[C@H]3CN1CCC(NCc2cc3c(cn2)OCCC3)CC1` [Gepotidacin], the MIC of evolved line [1] is reported as 128 mg/L, the “Relative MIC” value [1] is reported as 32 and the “Relative MIC (log10)” value (PA-MDR (Pseudomonas aeruginosa LESB 58), evolved line 1 adapted to the named antibiotic) is reported as 1.505. For the same compound, the “Relative MIC (log10)” value (PA-MDR (Pseudomonas aeruginosa LESB 58), evolved line 2 adapted to the named antibiotic) was 1.505, the “Relative MIC (log10)” value (PA-MDR (Pseudomonas aeruginosa LESB 58), evolved line 5 adapted to the named antibiotic) was 1.505 and the MIC of evolved line [2] was 128 mg/L. For the same compound, the “Relative MIC” value [2] was 32, the “Relative MIC (log10)” value (PA-MDR (Pseudomonas aeruginosa LESB 58), evolved line 7 adapted to the named antibiotic) was 1.505 and the “Relative MIC (log10)” value (PA-MDR (Pseudomonas aeruginosa LESB 58), evolved line 8 adapted to the named antibiotic) was 1.505. For the same compound, the “Relative MIC” value (PA-MDR, Pseudomonas aeruginosa LESB 58, evolved line 1 versus ancestor) was 32, the “Relative MIC” value (PA-MDR, Pseudomonas aeruginosa LESB 58, evolved line 2 versus ancestor) was 32 and the “Relative MIC” value (PA-MDR, Pseudomonas aeruginosa LESB 58, evolved line 3 versus ancestor) was 32. For the same compound, the “Relative MIC” value (PA-MDR, Pseudomonas aeruginosa LESB 58, evolved line 4 versus ancestor) was 32, the “Relative MIC” value (PA-MDR, Pseudomonas aeruginosa LESB 58, evolved line 5 versus ancestor) was 32 and the “Relative MIC” value (PA-MDR, Pseudomonas aeruginosa LESB 58, evolved line 6 versus ancestor) was 32. For the same compound, the “Relative MIC” value (PA-MDR, Pseudomonas aeruginosa LESB 58, evolved line 7 versus ancestor) was 32, the “Relative MIC” value (PA-MDR, Pseudomonas aeruginosa LESB 58, evolved line 8 versus ancestor) was 32 and the MIC of evolved line [3] was 64 mg/L. The “Relative MIC” value [3] was 16, the “Relative MIC” value (PA-MDR, Pseudomonas aeruginosa LESB 58, evolved line 9 versus ancestor) was 16 and the MIC of evolved line [4] was 128 mg/L. For the same compound, the “Relative MIC” value [4] was 32, the “Relative MIC” value (PA-MDR, Pseudomonas aeruginosa LESB 58, evolved line 10 versus ancestor) was 32 and the MIC of evolved line [5] was 128 mg/L. For the same compound, the “Relative MIC” value [5] was 32, the MIC of evolved line [6] was 128 mg/L and the “Relative MIC” value [6] was 32. For the same compound, the MIC of evolved line [7] was 128 mg/L, the “Relative MIC” value [7] was 32 and the MIC of evolved line [8] was 128 mg/L. The “Relative MIC” value [8] was 32, the MIC of evolved line [9] was 128 mg/L and the “Relative MIC” value [9] was 32. The MIC of evolved line [10] was 128 mg/L, the “Relative MIC” value [10] was 32 and the “Relative MIC (log10)” value (PA-SEN (Pseudomonas aeruginosa ATCC BAA 3107), evolved line 1 adapted to the named antibiotic) was 1.806. The “Relative MIC (log10)” value [11] was 1.806, the “Relative MIC (log10)” value (PA-SEN (Pseudomonas aeruginosa ATCC BAA 3107), evolved line 6 adapted to the named antibiotic) was 1.806 and the “Relative MIC (log10)” value (PA-SEN (Pseudomonas aeruginosa ATCC BAA 3107), evolved line 9 adapted to the named antibiotic) was 1.806. For the same compound, the “Relative MIC (log10)” value [12] was 1.806, the MIC of evolved line [13] was 256 mg/L and the “Relative MIC” value [13] was 64. For the same compound, the “Relative MIC” value [14] was 64, the MIC of evolved line [15] was 256 mg/L and the “Relative MIC” value [15] was 64. The “Relative MIC” value [16] was 64, the MIC of evolved line [17] was 128 mg/L and the “Relative MIC” value [17] was 32. The “Relative MIC” value [18] was 32, the MIC of evolved line [19] was 256 mg/L and the “Relative MIC” value [19] was 64. The “Relative MIC” value [20] was 64, the MIC of evolved line [21] was 128 mg/L and the “Relative MIC” value [21] was 32. For the same compound, the “Relative MIC” value [22] was 32, the MIC of evolved line [23] was 256 mg/L and the “Relative MIC” value [23] was 64. For the same compound, the “Relative MIC” value [24] was 64, the MIC of evolved line [25] was 256 mg/L and the “Relative MIC” value [25] was 64. For the same compound, the “Relative MIC” value [26] was 64, the MIC of evolved line [27] was 128 mg/L and the “Relative MIC” value [27] was 32. For the same compound, the “Relative MIC” value [28] was 32, the MIC of evolved line [29] was 256 mg/L and the “Relative MIC” value [29] was 64. The “Relative MIC” value [30] was 64, the MIC of evolved line [31] was 256 mg/L and the “Relative MIC” value [31] was 64. For the same compound, the “Relative MIC” value [32] was 64.

For `CN(C)[C@@H]1C(O)=C(C(N)=O)C(=O)[C@@]2(O)C(O)=C3C(=O)c4c(O)c(NC(=O)CN5CCCC5)cc(F)c4C[C@H]3C[C@@H]12` [Eravacycline], the “Relative MIC (log10)” value (PA-SEN (Pseudomonas aeruginosa ATCC BAA 3107), evolved line 2 adapted to the named antibiotic) was 1.505, the “Relative MIC (log10)” value [11] was 1.505 and the “Relative MIC (log10)” value (PA-SEN (Pseudomonas aeruginosa ATCC BAA 3107), evolved line 5 adapted to the named antibiotic) was 1.806. The “Relative MIC (log10)” value (PA-SEN (Pseudomonas aeruginosa ATCC BAA 3107), evolved line 7 adapted to the named antibiotic) was 1.204, the “Relative MIC (log10)” value [12] was 1.505 and the MIC of evolved line [13] was 128 mg/L. The “Relative MIC” value [14] was 32, the MIC of evolved line [15] was 128 mg/L and the “Relative MIC” value [16] was 32. For the same compound, the MIC of evolved line [17] was 256 mg/L, the “Relative MIC” value [18] was 64 and the MIC of evolved line [19] was 128 mg/L. The “Relative MIC” value [20] was 32, the MIC of evolved line [21] was 256 mg/L and the “Relative MIC” value [22] was 64. The MIC of evolved line [23] was 128 mg/L, the “Relative MIC” value [24] was 32 and the MIC of evolved line [25] was 64 mg/L. For the same compound, the “Relative MIC” value [26] was 16, the MIC of evolved line [27] was 64 mg/L and the “Relative MIC” value [28] was 16. For the same compound, the MIC of evolved line [29] was 64 mg/L, the “Relative MIC” value [30] was 16 and the MIC of evolved line [31] was 128 mg/L. The “Relative MIC” value [32] was 32, the “Relative MIC” value (Pseudomonas aeruginosa ATCC BAA 3107 (PA-SEN), evolved line 1) was 32 and the “Relative MIC” value (Pseudomonas aeruginosa ATCC BAA 3107 (PA-SEN), evolved line 2) was 32. For the same compound, the “Relative MIC” value (Pseudomonas aeruginosa ATCC BAA 3107 (PA-SEN), evolved line 3) was 64, the “Relative MIC” value (Pseudomonas aeruginosa ATCC BAA 3107 (PA-SEN), evolved line 4) was 32 and the “Relative MIC” value (Pseudomonas aeruginosa ATCC BAA 3107 (PA-SEN), evolved line 5) was 64. The “Relative MIC” value (Pseudomonas aeruginosa ATCC BAA 3107 (PA-SEN), evolved line 6) was 32, the “Relative MIC” value (Pseudomonas aeruginosa ATCC BAA 3107 (PA-SEN), evolved line 7) was 16 and the “Relative MIC” value (Pseudomonas aeruginosa ATCC BAA 3107 (PA-SEN), evolved line 8) was 16. The “Relative MIC” value (Pseudomonas aeruginosa ATCC BAA 3107 (PA-SEN), evolved line 9) was 16 and the “Relative MIC” value (Pseudomonas aeruginosa ATCC BAA 3107 (PA-SEN), evolved line 10) was 32.
